For one assay, the target named is T1, α1A adrenoceptor (Rattus norvegicus, UniProt P43140).
T1 construct: from tissue; host or cells: rat submaxillary gland membranes
T1 sequence (P43140 1-466): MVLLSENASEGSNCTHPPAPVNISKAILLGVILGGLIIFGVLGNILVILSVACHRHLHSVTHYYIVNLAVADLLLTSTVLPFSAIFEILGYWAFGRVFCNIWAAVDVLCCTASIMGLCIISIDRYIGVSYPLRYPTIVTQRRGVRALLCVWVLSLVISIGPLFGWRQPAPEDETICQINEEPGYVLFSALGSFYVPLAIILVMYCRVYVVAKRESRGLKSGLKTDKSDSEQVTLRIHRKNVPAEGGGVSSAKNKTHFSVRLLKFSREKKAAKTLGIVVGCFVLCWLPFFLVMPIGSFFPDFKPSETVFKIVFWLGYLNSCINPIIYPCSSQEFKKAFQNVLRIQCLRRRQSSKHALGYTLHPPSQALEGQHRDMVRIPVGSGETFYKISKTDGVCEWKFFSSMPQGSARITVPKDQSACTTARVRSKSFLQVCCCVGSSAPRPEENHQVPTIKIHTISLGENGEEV
Put plainly: Radioligand binding, [3H] prazosin displacement, rat submaxillary membranes. The settings on record: for Ki: [3H] prazosin displacement, rat submaxillary membranes, read-out: Affinity (Ki) α1A (Rat Submaxillary); for α1B/α1A: ratio of binding affinities, rat liver / rat submaxillary. As for the experimental part:
(§1) Receptor binding assays were performed using native a-adrenoceptors. The affinity of different compounds for α1A and α1B adrenoceptor subtypes was evaluated by studying their ability to displace specific [^3H] prazosin binding from the membranes of rat submaxillary and liver respectively (Michel et al., Br J Pharmacol, 1989: 98:883). The binding assays were performed according to U+Prichard et al. (Eur J Pharmacol, 1978; 50:87 with minor modifications.
(§2) Submaxillary glands were isolated immediately after sacrifice. The liver was perfused with buffer (Tris HCl 50 mM, NaCl 100 mM, 10 mM EDTA pH 7.4). The tissues were homogenised in 10 volumes of buffer (Tris HCl 50 mM, NaCl 100 mM, 10 mM EDTA pH 7.4). The homogenate was filtered through two layers of wet gauge and filtrate was centrifuged at 500 g for 10 min. The supernatant was subsequently centrifuged at 40,000 g for 45 min. The pellet thus obtained was resuspended in the same volume of assay buffer (Tris HCl 50 mM, 5 mM EDTA pH 7.4) and was stored at −70° C. until the time of assay.
(§3) The membrane homogenates (150-250 μg protein) were incubated in 250 μl of assay buffer (Tris HCl 50 mM, EDTA 5 mM, pH 7.4) at 24-25° C. for 1 hour. Non specific binding was determined in the presence of 300 nM prazosin. The incubation was terminated by vacuum filtration over GF/B fibre filters. The filters were then washed with ice cold 50 mM Tris HCl buffer (pH 7.4). The filtermats were dried and bound radioactivity retained on filters was counted. The IC50 and Kd were estimated by using the non-linear curve-fitting program using G Pad Prism software. The value of inhibition constant Ki was calculated from competitive binding studies by using Cheng & Prusoff equation (Cheng & Prusoff, Biochem Pharmacol, 1973, 22: 3099-3108), Ki=IC50/(1+L/Kd) where L is the concentration of [^3H] prazosin used in the particular experiment (Table 1).

In another assay the target is T2, α1B adrenoceptor (Rattus norvegicus, UniProt P15823).
T2 construct: from tissue; host or cells: rat liver membranes
T2 sequence (P15823 1-515): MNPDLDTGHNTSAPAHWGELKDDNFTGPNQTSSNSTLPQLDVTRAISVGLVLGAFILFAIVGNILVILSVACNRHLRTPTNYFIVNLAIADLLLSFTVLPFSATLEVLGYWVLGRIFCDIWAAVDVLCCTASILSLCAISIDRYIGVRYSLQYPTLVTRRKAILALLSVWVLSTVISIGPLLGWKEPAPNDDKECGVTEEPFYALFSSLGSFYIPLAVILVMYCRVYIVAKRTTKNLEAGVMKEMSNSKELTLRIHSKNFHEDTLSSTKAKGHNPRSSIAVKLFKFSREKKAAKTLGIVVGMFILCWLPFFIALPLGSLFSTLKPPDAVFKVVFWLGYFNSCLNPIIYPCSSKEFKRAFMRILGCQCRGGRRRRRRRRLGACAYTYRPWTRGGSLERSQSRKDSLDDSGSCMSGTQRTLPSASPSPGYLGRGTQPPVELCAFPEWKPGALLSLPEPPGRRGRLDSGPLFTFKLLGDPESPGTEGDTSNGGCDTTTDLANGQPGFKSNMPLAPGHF
Description: Radioligand binding, [3H] prazosin displacement, rat liver membranes. To be noted: read-out: Affinity (Ki) α1B (Rat Liver). Here is the method:
as §1, §2, §3

Counter-ions that a name gives are not always drawn.

For the compound `CC(C)Oc1ccccc1N1CCN(C(=O)CCN2C(=O)CCCC2=O)CC1.Cl` [Compound No. 49, 1-[4(2-Isopropoxyphenyl)piperazin-1-yl]-1-oxo-3-(2,6-dioxopiperidin-1-yl)propane hydrochloride], on α1A adrenoceptor, the Ki was more than 1000 nM and the α1B/α1A was 1. In addition, on α1B adrenoceptor, the inhibition constant (Ki) is more than 1000 nM.
On to `CC(C)Oc1ccccc1NCCN(CC=O)CCCN1C(=O)C2CC=CCC2C1=O` (stereo not drawn) [Compound No. 50, 2-[N-{N′-(2-Isopropoxyphenyl)aminoethyl}acetaldehyde-aminopropyl]-3a,4,7,7a-tetrahydro-1H-isoindole-1,3(2H)-dione], for which the inhibitory constant (Ki) at α1A adrenoceptor is 47 nM; at α1B adrenoceptor it was more than 1000 nM. The α1B/α1A at α1A adrenoceptor was more than 21.
On the same counts, the results for `CC(C)Oc1ccccc1N(CCO)CCN(CCO)CCCN1C(=O)C2CC=CCC2C1=O` (stereo not drawn) [Compound No. 51] are 662 nM, more than 15000 nM and more than 23.
For `CCOC(=O)CN(CCCN1C(=O)C2CC=CCC2C1=O)CCNc1ccccc1OC(C)C` (stereo not drawn) [Compound No. 52, 2-[N-{N′-(2-Isopropoxyphenyl)aminoethyl}ethylacetate-aminopropyl]-3a,4,7,7a-tetrahydro-1H-isoindole-1,3(2H)-dione], in that order: 351 nM, more than 15000 nM and more than 43.
As for `CC(C)Oc1ccccc1NCCN(C=O)CCCN1C(=O)C2CC=CCC2C1=O` (stereo not drawn) [Compound No. 53, 2-[N-{N′-(2-Isopropoxyphenyl)aminoethyl}formylaminopropyl]-3a,4,7,7a-tetrahydro-1H-isoindole-1,3(2H)-dione], on α1A adrenoceptor, the Ki came out at 74 nM and the α1B/α1A was more than 203. Further, the Ki on α1B adrenoceptor is more than 15000 nM.
For `CC(C)Oc1ccccc1N1CCN(CCCN2C(=O)C3CC=CCC3C2=O)CC1=O` (stereo not drawn) [Compound No. 54], on α1A adrenoceptor, the Ki is 7290 nM and the α1B/α1A is on record as more than 2. For the same compound, the Ki at α1B adrenoceptor was more than 15000 nM.
As for `COc1ccccc1[N+]1([O-])CCN(CCCN2C(=O)CCCC2=O)CC1` [Compound No. 55, 1-[4-(2-Methoxyphenyl)piperazin-1-yl-4-N-oxide]-3-(2,6-dioxopiperidin-1-yl]propane], at α1A adrenoceptor, the Ki is 72 nM and the α1B/α1A amounted to 51. For the same compound, the Ki on α1B adrenoceptor was determined as 3640 nM.
On the same counts, the results for `COc1ccccc1NCCNCCCN1C(=O)CCCC1=O` [Compound No. 56, 1-[N-{N′-(2-Methoxyphenyl)aminoethyl}]-3-(2,6-dioxopiperidin-1-yl)aminopropane hydrochloride] are more than 100 nM, more than 10 and 992 nM.
For `COc1ccccc1NCCNCCCN1C(=O)CCCC1=O.Cl` [Compound No. 57, 1-[N—N-{N′-(2-Methoxyphenyl)aminoethyl}]-3-(2,6-dioxopiperidin-1-yl)aminopropane hydrochloride], in that order: more than 1000 nM, 1 and more than 1000 nM.
As for `CC(=O)Nc1ccc(N2CCN(CCCN3C(=O)C4CC=CCC4C3=O)CC2)c(OC(C)C)c1.Cl` (stereo not drawn) [Compound No. 58, 2-[3-{4-(2-Isopropoxy-4-acetylaminophenyl)piperazin-1-yl}propyl]-3a,4,7,7a-tetrahydro-1H-isoindole-1,3(2H)-dione hydrochloride], the inhibitory constant (Ki) on α1A adrenoceptor is 160 nM; at α1B adrenoceptor, more than 1000 nM. Also, the α1B/α1A on α1A adrenoceptor worked out at 10.
For `CC(C)Oc1ccccc1N1CCN(CCCN2C(=O)C3=CC=CCC3C2=O)CC1.Cl` (stereo not drawn) [Compound No. 59, 2-[3-{4-(2-Isopropoxyphenyl)piperazin-1-yl}propyl]-7,7a-dihydro-1H-isoindole-1,3(2H)-dione hydrochloride], in that order: 2.3 nM, 48 nM and 21.
On the same counts, the results for `CC(C)Oc1ccccc1N1CCN(CCCN2C(=O)[C@@H]3[C@H](C2=O)[C@H]2C=C[C@@H]3O2)CC1` [Compound No. 61, 2-[3-{4-(2-Isopropoxyphenyl)piperazin-1-yl}-propyl]-exo-4,7-epoxy-3a,4,7,7a-tetrahydro-1H-isoindole-1,3(2H)-dione hydrochloride] are 0.93 nM, 29 nM and 31.
For `CC(C)Oc1ccccc1N1CCN(CCC(=O)N2C(=O)C3CC=CCC3C2=O)CC1.Cl` (stereo not drawn) [Compound No. 62, 2-[3-{4-(2-Isopropoxyphenyl)piperazin-1-yl}-1-oxo-propyl]-3a,4,7,7a-tetrahydro-1H-isoindole-1,3(2H)-dione hydrochloride], in that order: more than 1000 nM, more than 1000 nM and 1.
Regarding `CC(C)Oc1ccccc1N1CCN(CCC(=O)N2C(=O)C3CCCCC3C2=O)CC1.Cl` (stereo not drawn) [Compound No. 63, 2-[3-{4-(2-Isopropoxyphenyl)piperazin-1-yl}-1-oxo-propyl]-3a,4,5,6,7,7a-hexahydro-1H-isoindole-1,3(2H)-dione hydrochloride], on α1A adrenoceptor, the Ki is more than 100 nM and the α1B/α1A is more than 10. Further, the inhibition constant (Ki) at α1B adrenoceptor was more than 1000 nM.
`CC(C)Oc1ccccc1[N+]1([O-])CCN(CCCN2C(=O)C3CC=CCC3C2=O)CC1` (stereo not drawn) [Compound No. 64, 2-[3-{4-(2-Isopropoxyphenyl)piperazin-1-yl,4-N-oxide}propyl]-3a,4,7,7a-tetrahydro-1H-isoindole-1,3(2H)-dione]: the inhibitory constant (Ki) at α1A adrenoceptor was found to be 28.5 nM; at α1B adrenoceptor, 870 nM. On α1A adrenoceptor, the α1B/α1A was determined as 31.
For `CC(C)Oc1ccccc1N1CC[N+]([O-])(CC(O)CN2C(=O)C3CC=CCC3C2=O)CC1` (stereo not drawn) [Compound No. 65, 2-[3-{4-(2-Isopropoxyphenyl)piperazin-1-yl,1-N-oxide}2-hydroxypropyl]-3a,4,7,7a-tetrahydro-1H-isoindole-1,3(2H)-dione], in that order: more than 1000 nM, more than 1000 nM and 1.
For `CCOc1ccccc1N1CCN(CCCN2C(=O)C3CC(O)C(O)CC3C2=O)CC1` (stereo not drawn) [Compound No. 66, hydrochloride], the inhibition constant Ki at α1A adrenoceptor came out at 5.2 nM; at α1B adrenoceptor, 167 nM. In addition, on α1A adrenoceptor (hydrochloride), the α1B/α1A was 32.
As for `CC(C)Oc1ccccc1N1CCN(CCCN2C(=O)C3CC=CCC3C2=O)C1=O` (stereo not drawn) [Compound No. 67, 2-[3-{3-(2-Isopropoxyphenyl)imidazolidon-1-yl}propyl]-3a,4,7,7a-tetrahydro-1H-isoindole-1,3(2H)-dione], at α1A adrenoceptor, the Ki is 189 nM and the α1B/α1A is given as more than 53. The inhibition constant (Ki) on α1B adrenoceptor was more than 10000 nM.
On the same counts, the results for `CC(C)Oc1ccccc1N(CCO)CCNCCCN1C(=O)C2CC=CCC2C1=O` (stereo not drawn) [Compound No. 68, 2-[N-{N′-(2-Isopropoxyphenyl)aminoethyl}aminopropyl-N′-(β-hydroxyethyl]-3a,4,7,7a-tetrahydro-1H-isoindole-1,3(2H)-dione hydrochloride] are 229 nM, more than 44 and more than 10000 nM.
